# Biological target: T1, Ros1 enzyme (Homo sapiens, UniProt P08922)
# T1 construct: 0.5 μg/ml Ros1 enzyme
# Test: Ros1 enzymatic assay
# Assay type: biochemical
# Conditions: -log IC50 (M); 20 μM ATP, 120 min at room temperature; read-out: ROS1 pIC50 (converted)
# Experimental: Compounds were spotted onto white 384-well Proxiplate plus plates (Perkin Elmer) to which 5 μl of enzyme mix (0.5 μg/ml Ros1 enzyme, 50 mM Tris-HCl pH7.5, 1 mM EGTA, 10 mM MgCl2, 0.01% Tween-20) and 5 μl of substrate mix (6 μg/ml IRS-Tide [American Peptide Company], 20 μM ATP, 13.33 μCi/ml ATP (adenosine 5′-triphosphate) P^33, 50 mM Tris-HCl pH7.5, 1 mM EGTA (ethylene glycol-bis(2-aminoethylether)-N,N,N′,N′-tetraacetic acid), 10 mM MgCl2, 0.01% Tween-20) were added. After incubation for 120 minutes at room temperature, 10 μl of stop reaction buffer (5 mM EDTA, 50 μM ATP, 0.1% BSA (bovine serum albumin), 0.1% Triton X-100, 50 mM Tris-HCl pH7.5, 1 mM EGTA, 10 mM MgCl2, 0.01% Tween-20) containing 2 mg/ml streptavidin coupled polystyrene imaging beads (Amersham Biosciences) was added and incubated for 15 minutes at room temperature. Plates were centrifuged for 3 minutes at 1500 rpm and signals detected in a LEADseeker imaging system (GE).
# T1 sequence (P08922 28-2347): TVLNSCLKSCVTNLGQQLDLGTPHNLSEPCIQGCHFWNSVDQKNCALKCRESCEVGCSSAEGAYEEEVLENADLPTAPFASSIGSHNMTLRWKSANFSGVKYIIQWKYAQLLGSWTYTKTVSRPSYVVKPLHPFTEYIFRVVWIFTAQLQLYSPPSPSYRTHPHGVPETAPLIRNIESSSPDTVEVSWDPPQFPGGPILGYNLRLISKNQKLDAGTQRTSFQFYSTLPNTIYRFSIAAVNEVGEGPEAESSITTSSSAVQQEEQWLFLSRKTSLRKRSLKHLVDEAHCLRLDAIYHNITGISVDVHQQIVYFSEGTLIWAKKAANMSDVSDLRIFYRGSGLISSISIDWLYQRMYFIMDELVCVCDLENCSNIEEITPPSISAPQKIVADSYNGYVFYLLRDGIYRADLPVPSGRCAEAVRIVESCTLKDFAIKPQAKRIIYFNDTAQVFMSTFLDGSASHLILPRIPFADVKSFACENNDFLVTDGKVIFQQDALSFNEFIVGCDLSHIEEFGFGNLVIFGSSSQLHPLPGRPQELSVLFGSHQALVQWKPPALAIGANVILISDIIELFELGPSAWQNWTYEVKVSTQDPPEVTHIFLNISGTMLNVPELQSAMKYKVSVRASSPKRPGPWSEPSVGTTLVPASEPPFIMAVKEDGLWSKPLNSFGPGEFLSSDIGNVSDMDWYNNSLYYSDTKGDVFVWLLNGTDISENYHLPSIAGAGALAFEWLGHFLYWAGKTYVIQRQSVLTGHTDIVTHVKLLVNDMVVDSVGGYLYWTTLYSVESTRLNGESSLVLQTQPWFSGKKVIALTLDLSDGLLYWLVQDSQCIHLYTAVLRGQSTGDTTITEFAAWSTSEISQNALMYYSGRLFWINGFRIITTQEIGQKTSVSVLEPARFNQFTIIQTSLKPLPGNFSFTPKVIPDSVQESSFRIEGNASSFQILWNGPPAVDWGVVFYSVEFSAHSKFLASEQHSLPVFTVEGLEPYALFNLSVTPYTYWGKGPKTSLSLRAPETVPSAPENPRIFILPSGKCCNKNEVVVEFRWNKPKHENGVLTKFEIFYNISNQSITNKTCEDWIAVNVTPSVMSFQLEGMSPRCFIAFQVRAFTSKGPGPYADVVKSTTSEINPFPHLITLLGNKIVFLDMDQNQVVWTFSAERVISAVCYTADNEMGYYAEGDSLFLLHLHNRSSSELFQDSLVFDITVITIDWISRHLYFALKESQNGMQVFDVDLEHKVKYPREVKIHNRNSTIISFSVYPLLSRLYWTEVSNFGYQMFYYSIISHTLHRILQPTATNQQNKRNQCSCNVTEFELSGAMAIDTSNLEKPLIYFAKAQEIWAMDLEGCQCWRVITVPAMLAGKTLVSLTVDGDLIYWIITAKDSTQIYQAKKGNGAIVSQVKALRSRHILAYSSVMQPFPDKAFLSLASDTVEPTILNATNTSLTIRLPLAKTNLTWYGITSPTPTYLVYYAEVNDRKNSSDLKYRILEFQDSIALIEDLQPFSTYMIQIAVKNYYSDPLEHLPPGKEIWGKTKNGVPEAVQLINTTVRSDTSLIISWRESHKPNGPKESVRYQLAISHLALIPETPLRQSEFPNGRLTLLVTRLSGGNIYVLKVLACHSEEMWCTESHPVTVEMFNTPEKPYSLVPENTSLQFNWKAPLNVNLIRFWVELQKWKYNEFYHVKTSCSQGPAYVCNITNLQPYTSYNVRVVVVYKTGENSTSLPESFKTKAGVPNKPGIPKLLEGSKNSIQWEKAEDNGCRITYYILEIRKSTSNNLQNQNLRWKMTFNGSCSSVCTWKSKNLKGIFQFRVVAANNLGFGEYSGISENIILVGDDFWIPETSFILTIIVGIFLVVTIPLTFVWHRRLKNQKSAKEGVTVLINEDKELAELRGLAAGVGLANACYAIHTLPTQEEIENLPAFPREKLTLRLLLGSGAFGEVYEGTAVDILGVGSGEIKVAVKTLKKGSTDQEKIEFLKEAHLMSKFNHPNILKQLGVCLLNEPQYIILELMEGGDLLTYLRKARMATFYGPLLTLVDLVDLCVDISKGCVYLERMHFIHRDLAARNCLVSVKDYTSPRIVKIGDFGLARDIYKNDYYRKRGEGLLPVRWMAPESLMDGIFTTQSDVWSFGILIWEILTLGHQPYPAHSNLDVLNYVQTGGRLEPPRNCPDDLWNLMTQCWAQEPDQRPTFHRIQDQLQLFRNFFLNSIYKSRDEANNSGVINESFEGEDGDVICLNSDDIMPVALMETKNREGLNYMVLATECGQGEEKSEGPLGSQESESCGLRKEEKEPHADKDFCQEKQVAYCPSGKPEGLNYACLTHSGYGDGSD
row,SMILES,IC50 [M]
1,CC(C)c1ccc(COc2ccc(-c3c(-c4ccncc4)nn4c3N(CCO)CCC4)cc2)cc1 [Co. 21],6.31e-08
2,CC(C)c1ccc(COc2ccc(-c3c(-c4ccncc4)nn4c3N(C)C(=O)CC4)cc2)cc1 [Co. 22],5.01e-07
3,CC(C)c1ccc(COc2ccc(-c3c(-c4ccncc4)nn4c3NC(CO)CC4)c(F)c2)cc1 (centres unmarked) [Co. 23],3.16e-08
4,CC(C)c1ccc(COc2ccc(-c3c(-c4ccncc4)nn4c3NC(CO)CC4)cc2)cc1 (centres unmarked) [Co. 24],6.31e-08

# The remaining lines, values ahead:
row,IC50 [M],SMILES
1,1.26e-07,CC(C)c1ccc(COc2ccc(-c3c(-c4ccncc4)nn4c3NCCC4CO)cc2)cc1 (centres unmarked) [Co. 25]
2,3.16e-08,CNC(=O)C1CCNc2c(-c3ccc(OCc4ccc(C(C)C)cc4)cc3)c(-c3ccncc3)nn21 (centres unmarked) [Co. 26]
3,5.01e-07,CNCC1CCNc2c(-c3ccc(OCc4ccc(C(C)C)cc4)cc3)c(-c3ccncc3)nn21 (centres unmarked) [Co. 27]

# Biological target: Ba/F3 cells containing Ros1 wild-type protein (Homo sapiens, UniProt P08922, cells depend on it, form not given)
# Test: Ba/F3-Ros1 cell proliferation assay, wild-type Ros1, without IL-3
# Assay type: cell-based, murine
# Conditions: -log IC50 (M); wild-type Ros1, no IL-3, 24 h, Alamar Blue
# Experimental: (§1) This assay was carried out with Ba/F3 cells containing three different versions of Ros1: the wild-type protein, protein with a mutation at the gatekeeper residue (L2026M), and protein with a mutation identified in a tumor from a patient that became resistant to crizotinib (Xalkori®) treatment (G2032R). Compounds were solubilized in 100% DMSO (dimethyl sulfoxide) and sprayed into polystyrene, tissue culture treated 384-well plates. A 50 μl volume of cell culture medium (phenol red free RPMI-1640, 10% FBS (fetal bovine serum), 2 mM L-Glutamine) containing 20000 Ba/F3-Ros1 cells was added to each well and the plates were placed in an incubator at 37° C. and 5% CO2. After 24 hours, 10 μl of Alamar Blue solution (0.5 mM K3Fe(CN)6, 0.5 mM K4Fe(CN)6, 0.15 mM Resazurin and 100 mM Phosphate Buffer) was added to the wells, incubated for 4 hours at 37° C. and 5% CO2 before RFU's (Relative Fluorescence Units) (ex. 540 nm., em. 590 nm.) were measured in a fluorescence plate reader.
# Sequence of Ba/F3 cells containing Ros1 wild-type protein (P08922 whole entry, change not shown): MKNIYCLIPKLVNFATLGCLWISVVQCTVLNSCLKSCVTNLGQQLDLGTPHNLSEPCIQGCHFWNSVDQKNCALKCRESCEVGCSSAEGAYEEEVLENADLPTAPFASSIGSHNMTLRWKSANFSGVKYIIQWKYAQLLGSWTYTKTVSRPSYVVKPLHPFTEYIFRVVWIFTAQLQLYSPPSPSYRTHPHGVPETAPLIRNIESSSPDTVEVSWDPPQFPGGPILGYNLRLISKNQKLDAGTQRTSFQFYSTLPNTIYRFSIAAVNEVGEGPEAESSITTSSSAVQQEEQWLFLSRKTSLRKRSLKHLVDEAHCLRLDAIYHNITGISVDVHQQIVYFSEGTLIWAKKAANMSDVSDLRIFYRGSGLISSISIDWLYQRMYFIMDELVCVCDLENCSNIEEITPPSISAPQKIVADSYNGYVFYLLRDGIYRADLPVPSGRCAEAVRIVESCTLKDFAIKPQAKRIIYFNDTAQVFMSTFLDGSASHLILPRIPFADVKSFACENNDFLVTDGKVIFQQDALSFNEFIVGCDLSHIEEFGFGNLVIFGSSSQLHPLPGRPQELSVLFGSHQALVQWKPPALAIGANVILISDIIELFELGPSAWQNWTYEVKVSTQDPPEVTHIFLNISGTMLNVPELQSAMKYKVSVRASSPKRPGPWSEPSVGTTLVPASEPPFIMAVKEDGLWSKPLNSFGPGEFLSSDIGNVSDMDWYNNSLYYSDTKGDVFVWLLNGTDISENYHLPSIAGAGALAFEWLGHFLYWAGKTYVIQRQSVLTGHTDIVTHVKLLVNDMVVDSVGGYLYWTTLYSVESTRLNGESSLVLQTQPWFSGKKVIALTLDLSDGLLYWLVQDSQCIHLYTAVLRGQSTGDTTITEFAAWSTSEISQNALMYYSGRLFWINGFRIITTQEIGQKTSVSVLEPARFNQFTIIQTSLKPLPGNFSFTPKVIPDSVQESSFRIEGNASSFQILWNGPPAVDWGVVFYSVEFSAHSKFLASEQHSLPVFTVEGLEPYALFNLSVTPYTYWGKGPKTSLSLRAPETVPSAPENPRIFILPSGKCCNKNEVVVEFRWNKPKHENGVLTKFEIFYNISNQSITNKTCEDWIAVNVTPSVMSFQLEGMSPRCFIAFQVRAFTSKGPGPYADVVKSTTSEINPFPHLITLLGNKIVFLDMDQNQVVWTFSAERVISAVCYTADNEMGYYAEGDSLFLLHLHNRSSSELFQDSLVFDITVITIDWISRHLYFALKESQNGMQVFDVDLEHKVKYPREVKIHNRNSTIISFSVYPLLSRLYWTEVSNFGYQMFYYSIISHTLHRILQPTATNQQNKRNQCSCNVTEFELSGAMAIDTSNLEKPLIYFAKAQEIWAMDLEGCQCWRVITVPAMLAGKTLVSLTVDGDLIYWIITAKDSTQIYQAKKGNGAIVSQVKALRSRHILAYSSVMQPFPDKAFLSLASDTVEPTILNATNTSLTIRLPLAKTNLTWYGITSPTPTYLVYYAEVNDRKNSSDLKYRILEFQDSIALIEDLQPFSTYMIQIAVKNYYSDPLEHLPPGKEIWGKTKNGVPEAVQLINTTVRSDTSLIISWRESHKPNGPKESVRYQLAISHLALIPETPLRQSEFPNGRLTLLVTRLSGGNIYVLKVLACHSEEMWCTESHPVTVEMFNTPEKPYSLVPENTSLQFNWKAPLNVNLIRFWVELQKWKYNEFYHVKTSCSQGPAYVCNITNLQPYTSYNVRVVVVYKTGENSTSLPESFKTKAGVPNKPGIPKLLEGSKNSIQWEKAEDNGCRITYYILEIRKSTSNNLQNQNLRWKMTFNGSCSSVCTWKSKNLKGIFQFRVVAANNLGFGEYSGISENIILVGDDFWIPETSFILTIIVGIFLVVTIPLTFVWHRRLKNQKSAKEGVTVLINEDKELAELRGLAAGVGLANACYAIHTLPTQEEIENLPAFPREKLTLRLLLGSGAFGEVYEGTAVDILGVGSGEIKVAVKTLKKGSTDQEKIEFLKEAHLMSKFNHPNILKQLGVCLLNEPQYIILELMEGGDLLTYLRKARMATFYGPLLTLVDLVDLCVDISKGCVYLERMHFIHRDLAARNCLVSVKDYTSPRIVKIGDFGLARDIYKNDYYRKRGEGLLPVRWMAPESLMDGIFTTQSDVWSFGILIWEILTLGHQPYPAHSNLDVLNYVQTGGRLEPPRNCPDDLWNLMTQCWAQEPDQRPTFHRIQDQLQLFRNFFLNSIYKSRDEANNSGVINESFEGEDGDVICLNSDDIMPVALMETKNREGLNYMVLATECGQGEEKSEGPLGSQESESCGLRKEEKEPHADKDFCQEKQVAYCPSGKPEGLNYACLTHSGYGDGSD
row,SMILES,BaF3-ROS1 − IL3 pIC50
1,CC(C)c1ccc(COc2ccc(-c3c(-c4ccncc4)nn4c3N(CCO)CCC4)cc2)cc1 [Co. 21],7.4
2,CC(C)c1ccc(COc2ccc(-c3c(-c4ccncc4)nn4c3N(C)C(=O)CC4)cc2)cc1 [Co. 22],6.4
3,CC(C)c1ccc(COc2ccc(-c3c(-c4ccncc4)nn4c3NC(CO)CC4)c(F)c2)cc1 (centres unmarked) [Co. 23],7.9
4,CC(C)c1ccc(COc2ccc(-c3c(-c4ccncc4)nn4c3NC(CO)CC4)cc2)cc1 (centres unmarked) [Co. 24],7.5

# Results, then the compound that gave them:
row,BaF3-ROS1 − IL3 pIC50,SMILES
1,7.0,CC(C)c1ccc(COc2ccc(-c3c(-c4ccncc4)nn4c3NCCC4CO)cc2)cc1 (centres unmarked) [Co. 25]
2,7.1,CNC(=O)C1CCNc2c(-c3ccc(OCc4ccc(C(C)C)cc4)cc3)c(-c3ccncc3)nn21 (centres unmarked) [Co. 26]
3,6.3,CNCC1CCNc2c(-c3ccc(OCc4ccc(C(C)C)cc4)cc3)c(-c3ccncc3)nn21 (centres unmarked) [Co. 27]

# Test system: Ba/F3 cells containing Ros1 wild-type protein + IL-3
# Test: Ba/F3-Ros1 cell proliferation counter-screen, wild-type Ros1 in the presence of murine IL-3
# Assay type: cell-based
# Conditions: Mus musculus, BaF3, 24 h; -log IC50 (M); wild-type Ros1, 10 ng/ml murine IL-3 (counter-screen); read-out: BaF3-ROS1 + IL3 pIC50 (converted)
# Experimental: as §1
# As a counter-screen the same experiment was performed for the wild-type protein in the presence of 10 ng/ml murine IL-3.
row,SMILES,CC50 [M]
1,CC(C)c1ccc(COc2ccc(-c3c(-c4ccncc4)nn4c3N(CCO)CCC4)cc2)cc1 [Co. 21],> 1e-05
2,CC(C)c1ccc(COc2ccc(-c3c(-c4ccncc4)nn4c3N(C)C(=O)CC4)cc2)cc1 [Co. 22],> 1e-05
3,CC(C)c1ccc(COc2ccc(-c3c(-c4ccncc4)nn4c3NC(CO)CC4)c(F)c2)cc1 (centres unmarked) [Co. 23],> 1e-05
4,CC(C)c1ccc(COc2ccc(-c3c(-c4ccncc4)nn4c3NC(CO)CC4)cc2)cc1 (centres unmarked) [Co. 24],7.94e-06
5,CC(C)c1ccc(COc2ccc(-c3c(-c4ccncc4)nn4c3NCCC4CO)cc2)cc1 (centres unmarked) [Co. 25],> 1e-05
6,CNC(=O)C1CCNc2c(-c3ccc(OCc4ccc(C(C)C)cc4)cc3)c(-c3ccncc3)nn21 (centres unmarked) [Co. 26],> 1e-05
7,CNCC1CCNc2c(-c3ccc(OCc4ccc(C(C)C)cc4)cc3)c(-c3ccncc3)nn21 (centres unmarked) [Co. 27],~6.31e-06

# Biological target: Ba/F3 cells containing Ros1 L2026M (Homo sapiens, UniProt P08922, L2026M, cells depend on it, form not given)
# Test: Ba/F3-Ros1 cell proliferation assay, L2026M gatekeeper mutant
# Assay type: cell-based, murine
# Conditions: -log IC50 (M), no IL-3
# Experimental: as §1
# Sequence of Ba/F3 cells containing Ros1 L2026M (P08922 whole entry L2026M, form open): as the sequence (P08922 whole entry, change not shown) above, with L2026M counted along it
row,SMILES,Ba/F3 Ros1 L2026M (-IL-3) pIC50
1,CC(C)c1ccc(COc2ccc(-c3c(-c4ccncc4)nn4c3N(CCO)CCC4)cc2)cc1 [Co. 21],6.9
2,CC(C)c1ccc(COc2ccc(-c3c(-c4ccncc4)nn4c3NC(CO)CC4)c(F)c2)cc1 (centres unmarked) [Co. 23],7.8
3,CC(C)c1ccc(COc2ccc(-c3c(-c4ccncc4)nn4c3NC(CO)CC4)cc2)cc1 (centres unmarked) [Co. 24],7.6

# Now from value to compound:
row,Ba/F3 Ros1 L2026M (-IL-3) pIC50,SMILES
1,6.8,CC(C)c1ccc(COc2ccc(-c3c(-c4ccncc4)nn4c3NCCC4CO)cc2)cc1 (centres unmarked) [Co. 25]
2,6.7,CNC(=O)C1CCNc2c(-c3ccc(OCc4ccc(C(C)C)cc4)cc3)c(-c3ccncc3)nn21 (centres unmarked) [Co. 26]
3,5.5,CNCC1CCNc2c(-c3ccc(OCc4ccc(C(C)C)cc4)cc3)c(-c3ccncc3)nn21 (centres unmarked) [Co. 27]

# Test system: HCC78 non-small cell lung cancer cells
# Test: HCC78 cell proliferation assay
# Assay type: cell-based
# Conditions: Homo sapiens, HCC78, 96 h; -log EC50 (M); 4 days, MTT; read-out: HCC-78 PROL pEC50 (converted)
# Experimental: Approximately 1000 HCC78 non-small cell lung cancer cells in 180 μl of cell culture medium (RPMI-1640, 10% FBS, 2 mM L-Glutamine, 10 mM Hepes, 1 mM sodium pyruvate, 4.5 g/L glucose, 1.5 g/L sodium bicarbonate, 25 μg/ml Gentamycin) were seeded in each well of a 96-well polystyrene, tissue-culture treated plate and incubated at 37° C. and 5% CO2. After 24 hours, compounds were diluted in cell culture medium from which 20 μl was added to the wells containing cells and incubated for 4 days at 37° C. and 5% CO2. A 5 mg/ml solution of the tetrazolium dye MTT was prepared in PBS (phosphate-buffered saline) and 25 μl was added to each well. After 2 hours the medium was removed and replaced by 125 μL of 4/1 DMSO/glycine buffer (0.1M glycine, 0.1M NaCl, pH 10.5) before absorbance was determined at 538 nm.
row,SMILES,EC50 [M]
1,CC(C)c1ccc(COc2ccc(-c3c(-c4ccncc4)nn4c3NC(CO)CC4)c(F)c2)cc1 (centres unmarked) [Co. 23],1e-07
2,CC(C)c1ccc(COc2ccc(-c3c(-c4ccncc4)nn4c3NC(CO)CC4)cc2)cc1 (centres unmarked) [Co. 24],7.94e-08

# The next lines start with the values.
row,EC50 [M],SMILES
1,7.94e-07,CC(C)c1ccc(COc2ccc(-c3c(-c4ccncc4)nn4c3NCCC4CO)cc2)cc1 (centres unmarked) [Co. 25]
2,1.58e-07,CNC(=O)C1CCNc2c(-c3ccc(OCc4ccc(C(C)C)cc4)cc3)c(-c3ccncc3)nn21 (centres unmarked) [Co. 26]

# Test system: not given
# Test: not given
# Conditions: not given
row,SMILES,melting point [°C]
1,CC(C)c1ccc(COc2ccc(-c3c(-c4ccncc4)nn4c3N(CCO)CCC4)cc2)cc1 [Co. 21],147
2,CC(C)c1ccc(COc2ccc(-c3c(-c4ccncc4)nn4c3N(C)C(=O)CC4)cc2)cc1 [Co. 22],160
3,CC(C)c1ccc(COc2ccc(-c3c(-c4ccncc4)nn4c3NC(CO)CC4)cc2)cc1 (centres unmarked) [Co. 24],199
4,CC(C)c1ccc(COc2ccc(-c3c(-c4ccncc4)nn4c3NCCC4CO)cc2)cc1 (centres unmarked) [Co. 25],155
